{"source": "patent US7387807B2", "about": "“Topical composition comprising feverfew” (Johnson & Johnson Consumer France, SAS, Roc Division, priority 1999, dated 2008)", "format_in_all_cases": "in vivo", "key": {"Albino male CD-1 mice [1]": {"test_system": "Albino male CD-1 mice", "assay": "Oxazolone contact hypersensitivity, mouse ear", "conditions": "0.1% topical, 20 μL to ear 1 hour after challenge; ear weight at 24 hours", "protocol": "The following experiments were carried out to test the effect of feverfew and substantially parthenolide-free feverfew in a contact […] assay. In this assay, the compositions of the invention were evaluated against hydrocortisone, a steroid known to inhibit contact hypersensitivity. Albino male CD-1 mice, 7-9 weeks old, were induce on the shaved abdomen with 50 μL of 3% oxazolone in acetone/corn oil Day 0). On Day 5, a 20 μL volume of 2% oxazolone in acetone was […] to the dorsal left ear of the mouse. […] The right ear was not treated. The mice were sacrificed by CO2 inhalation 24 hours after the oxazolone challenge, the left and right ears were removed and a 7 mm biopsy was taken from each ear and weighed. The difference in biopsy weights between the right and left ear was calculated. Antiinflammatory effects of compounds are evident as an inhibition of the increase in ear weight."}, "human volunteers [2]": {"test_system": "human volunteers", "assay": "Prevention of trauma (stratum corneum stripping) induced erythema, human study", "conditions": "applied twice daily for 2 days before stripping, total 2 hour period, compared to the vehicle", "protocol": "Test product was applied to the ventral side of the forearm twice daily for 2 consecutive days. […] Chromameter measurements were made prior to stripping and at 0.5, 1, 1.5 and 2 hours posts tripping. The Colorimetric Erythema Index (CEI) was calculated for each time point. For the total 2 hour period, and compared to the vehicle, the following reductions in erythema were obtained;"}, "human volunteers [3]": {"test_system": "human volunteers", "assay": "Treatment of trauma (stratum corneum stripping) induced erythema, human study", "conditions": "applied for 2 hours immediately after stripping, total 2 hour period, compared to the vehicle", "protocol": "Test product was applied to the ventral side of the forearm for 2 hours, immediately after stripping. Chromameter measurements were made prior to stripping and at 0.5, 1, 1.5 and 2 hours post stripping. The Colorimetric Erythema Index (CEI) was calculated for each time point. For the total 2 hour period, and compared to the vehicle, the following reductions in erythema were obtained: […]"}, "human volunteers [4]": {"test_system": "human volunteers", "assay": "Treatment of UVB induced erythema, human study", "conditions": "2 mg/cm^2 immediately after 2MED UV and 5 and 8 hours later", "protocol": "Ten healthy volunteers were irradiated with 2MED UV light on five distinct spots of the volar forearms. Test product was applied (2 mg/cm^2) on the irradiated sites immediately after irradiation, and 5 and 8 hours later. Erythema scores were measured before irradiation and 1, 4, 7 and 24 hours later. The following reductions in erythema were obtained: […]"}, "Albino male CD-1 mice [5]": {"test_system": "Albino male CD-1 mice", "assay": "Phorbol ester (TPA) induced mouse ear edema", "conditions": "0.1% topical, 20 μL immediately after TPA; 5.5 hours", "protocol": "The following experiments were carried out to test the effect of feverfew and substantially parthenolide-free feverfew in a phorbol ester PITA) induced edema assay. […] Albino male CD-1 mice, 7-9 weeks old, were used. A 0.005% (w/v) TPA solution was made in acetone. A 20 μL volume of this TPA solution was applied to the dorsal left ear of the mouse. Test compounds were applied immediately to the left ear (20 μL) after TPA in a 70% ethanol/propylene glycol vehicle. The right ear was not treated. The mice were sacrificed by CO2 inhalation (5.5 hours after TPA), the left and right ears were removed and a 7 mm biopsy was removed from each ear and weighed. The difference in biopsy weights between the right and left ear was calculated."}, "human volunteers [6]": {"test_system": "human volunteers", "assay": "Prevention of UVB induced erythema, human study", "conditions": "2 mg/cm^2 twice daily for 2 days before 2MED UVB", "protocol": "Test product was applied to 5 different locations on the volar forearm twice daily for 2 consecutive days (2 mg/cm^2). The sites were exposed to 2MED UVB. Chromameter measurements were made prior to irradiation and at 18, 24, 42 and 48 hours post irradiation. The Colorimetric Erythema Index (CEI) was calculated for each time point. The following reductions in erythema were obtained: […]"}, "Albino male CD-1 mice [7]": {"test_system": "Albino male CD-1 mice", "assay": "Arachidonic acid induced ear edema", "conditions": "20 μl immediately after AA, 1 hour", "protocol": "In this in vivo model, feverfew's ability to reduce arachidonic acid induced edema was compared to the known cycloxygenase/lipoxgenase inhibitor tepoxalin. Albino male CD-1 mice, 7-9 weeks old, were used. A 20% (w/v) arachidonic acid (AA) solution was made in acetone. A 20 μl volume of the AA was applied to the dorsal left ear of the mouse. Test compounds (20 μl) were applied immediately to the left ear after AA in a 70% ethanol/30% propylene glycol vehicle. The right ear was not treated. The mice were sacrificed by CO2 inhalation 1 hour after AA, the left and right ears were removed and a 7 mm biopsy was removed from each ear and weighed. The difference in biopsy weights between the right and left ear was calculated. Antiinflammatory effects of compounds are evident as an inhibition of the increase in ear weight."}}}
{"compound": "C[C@]12CCC(=O)C=C1CC[C@@H]1[C@@H]2[C@@H](O)C[C@@]2(C)[C@H]1CC[C@]2(O)C(=O)CO", "note": "[Hydrocortisone]", "values": [{"measurement": "Oxazolone contact hypersensitivity % Inhibition, Study 1", "setting": "Albino male CD-1 mice [1]", "result": 96.9, "unit": "%"}, {"measurement": "Oxazolone contact hypersensitivity % Inhibition, Study 2", "setting": "Albino male CD-1 mice [1]", "result": 87.6, "unit": "%"}, {"measurement": "Oxazolone contact hypersensitivity % Inhibition, Study 3", "setting": "Albino male CD-1 mice [1]", "result": 91.0, "unit": "%"}, {"measurement": "Reduction of Erythema (%)", "setting": "human volunteers [2]; 0.1%", "result": 10, "unit": "%"}, {"measurement": "Reduction of Erythema (%)", "setting": "human volunteers [2]; 1%", "result": 19, "unit": "%"}, {"measurement": "Reduction of Erythema (%)", "setting": "human volunteers [3]; 0.1%", "result": "−3", "unit": "%"}, {"measurement": "Reduction of Erythema (%)", "setting": "human volunteers [3]; 1%", "result": 14, "unit": "%"}, {"measurement": "Reduction of Erythema (%)", "setting": "human volunteers [4]; 0.1%", "result": 3.2, "unit": "%"}, {"measurement": "Reduction of Erythema (%)", "setting": "human volunteers [4]; 1%", "result": 17.7, "unit": "%"}, {"measurement": "TPA induced ear edema, inhibition of the increase in ear weight, Study 1", "setting": "Albino male CD-1 mice [5]", "result": 96.9}, {"measurement": "Reduction of Erythema (%)", "setting": "human volunteers [6]; 0.1%", "result": 2.5, "unit": "%"}, {"measurement": "Reduction of Erythema (%)", "setting": "human volunteers [6]; 1%", "result": 5.7, "unit": "%"}]}
{"compound": "C[C@@H]1C[C@H]2[C@@H]3CCC4=CC(=O)C=C[C@]4(C)[C@@]3(F)[C@@H](O)C[C@]2(C)[C@@]1(O)C(=O)CO", "note": "[Dexamethasone]", "values": [{"measurement": "TPA induced ear edema, inhibition of the increase in ear weight, Study 2", "setting": "Albino male CD-1 mice [5]", "result": 97.2}]}
{"compound": "COc1ccc(-n2nc(CCC(=O)N(C)O)cc2-c2ccc(Cl)cc2)cc1", "note": "[Tepoxalin]", "values": [{"measurement": "Arachidonic acid induced ear edema % Inhibition", "setting": "Albino male CD-1 mice [7]; 0.1% topical", "result": 10.84, "unit": "%"}, {"measurement": "Arachidonic acid induced ear edema % Inhibition", "setting": "Albino male CD-1 mice [7]; 1.0% topical", "result": 42.38, "unit": "%"}, {"measurement": "Arachidonic acid induced ear edema % Inhibition", "setting": "Albino male CD-1 mice [7]; 2.0% topical", "result": 61.06, "unit": "%"}]}
